Assay results: patent US9616022B1, “Nanodiamond compositions and their use for drug delivery” (THE FLORIDA INTERNATIONAL UNIVERSITY BOARD OF TRUSTEES, priority 2016, dated 2017)

Key:
[1] = test system: in-vitro BBB model (HBMVEC and astrocytes); assay: Drug delivery through in-vitro BBB model; type: in vitro ADME, human; conditions: 40 μg/mL in upper chamber, 30 min to Day 2
Experimental: Primary human brain microvascular endothelial cells (HBMVEC) and astrocytes were obtained from Sciencell Research Laboratories, Carlsbad, Calif. An in-vitro BBB model was established in trans-well plate as per published protocol.^47,48 HBMVECs were inoculated at the upper side of 0.4-μm pore size PTFE membrane tissue culture inserts (Corning, N.Y.) at initial concentration of 10^4 cells/well. A confluent layer of human astrocytes was grown on the lower side of the membrane. After incubation, integrity of the BBB was measured with transendothelial electrical resistance (TEER) using Millicell ERS microelectrodes (Millipore). […] Afterwards, cell media was collected at different time points (30 mins, 1 hr, Day 1, and Day 2) from the lower chamber and the upper chamber was replenished with fresh media. The drug content of the collected medium was measured through HPLC as mentioned above.

[2] = Solubility in water or PBS; type: physicochemical
Excerpt: In some embodiments, the efficacy of the ND-EFV formulation can be further optimized by making a suspension of the formulation in a liquid. Being hydrophobic molecules, both EFV and ND were insoluble in water or phosphate buffer saline (PBS). In certain embodiments, solvents with ratios of PBS to DMSO (dimethyl sulfoxide) ranging from 1:1 to 1:9 were used to make the ND-EFV formulation soluble in physiological buffer media. In an exemplary embodiment, a PBS:DMSO ratio of approximately 1:9 was used for making a ND-EFV suspension, which was subsequently diluted in preparation to perform biological experiments.

HIV-1 Ba-L = assay: Anti-HIV-1 efficacy, p24 ELISA in infected primary human macrophages; type: cell-based; conditions: 40 μg/mL, HIV-1 infected macrophages, supernatant Day 0-7
Experimental: ND-EFV was investigated for anti-HIV-1 efficacy in primary human macrophage. Human peripheral blood mononuclear cells (PBMCs) were isolated from a healthy subject and differentiated into macrophages as previously published.^45 PBMCs were isolated with Ficoll-Hypaque (Pharmacia) gradient and cells were incubated for differentiation for 7 days in the presence of human macrophage colony stimulating factor (MCSF, Sigma) to macrophages. Following incubation, macrophages were infected with HIV-1 1Ba-L (NIH AIDS research and reference reagent program Cat#510) (100 ng/mL) for 24 hrs. On the next day, cells were washed to get rid of any unattached virus and fresh media was added. At the same time, 40 μg/mL of ND-EFV and unformulated EFV was added to these cells in two different setups. The HIV-1 infected macrophages served as a positive control. The […] treated cells were monitored for up to 10 days along with the infected control cells. The cell supernatant was collected at Day 0, 1, 2, 3, 5, and 7 post-treatment. The viral p24 level in the supernatant was measured with p24 ELISA assay (Cat. #0801200, Zeptometrix, USA). The p24 level at different time points provided the level of viral inhibition caused by ND-EFV and EFV. The p24 level at the culture supernatant will be inversely proportional to therapeutic efficacy of ND-EFV.

EFV drug release on the CNS side (lower chamber) of the BBB model [1]: very robust drug release
solubility in water or phosphate buffer saline (PBS) [2]: insoluble
Structure (SMILES): O=C1Nc2ccc(Cl)cc2[C@@](C#CC2CC2)(C(F)(F)F)O1 [EFV, Efavirenz]
time over which HIV-1 replication (p24 level) was controlled (HIV-1 Ba-L): ≤ 5 days
